In experiment [1] the test system is voltage-gated potassium channels. The experiment is described as follows: Whole-cell patch-clamp, total potassium currents in DRG neurons. Type of experiment: cell-based, rat. Particulars: 20 μM (DMSO: 420.9±54.19). Here is the method:
Recordings were obtained from acutely dissociated DRG neurons as described earlier (Bellampalli et al., 2019). Patch-clamp recordings were performed at room temperature (22-24° C.). Currents were recorded using an EPC 10 Amplifier-HEKA (HEKA Elektronik, Ludwigshafen, Germany) linked to a computer with Patchmaster software. DRG neurons were incubated overnight (˜16-24 hours) with 20 μM of CBD3063.
To isolate potassium currents (IK+), DRG neurons were bathed in external solution composed of (in millimolar): 140 N-methyl-glucamine chloride, 5 KCl, 1 MgCl2, 2 CaCl2, 10 D-glucose, and 10 HEPES (pH adjusted to 7.3 with KOH and mOsm/L=313). Recording pipettes were filled with internal solution containing (in mM): 140 KCl, 2.5 MgCl2, 4 Mg-ATP, 0.3 Na-GTP, 2.5 CaCl2), 5 EGTA, and 10 HEPES (pH adjusted to 7.3 with KOH and mOsm/L=320). From a holding potential of −60 mV, IK activation was determined by applying 300-millisecond voltage steps from −80 to +60 mV in 10-mV increments.
Normalization of currents to each cell's capacitance (pF) was performed to allow for collection of current density data. For I-V curves, functions were fitted to data using a non-linear least squares analysis. I-V curves were fitted using double Boltzmann functions: […]

Experiment [2] concerns rat DRG sensory neurons. Nature of the experiment: Whole-cell current-clamp, excitability of DRG sensory neurons. Also on record: rheobase: unit not given here. The experiment is classed as cell-based. As for the experimental part:
Cav2.2 channels have critical roles in controlling the excitability of DRG neurons, according to earlier studies (Yang et al., 2018). Since Cav2.2 populations are affected by CBD3063, the ability of CBD3063 to alter the excitability of DRG sensory neurons was investigated (FIGS. 7A-D). Action potentials (AP) were elicited in rat sensory neurons during whole cell current-clamp tests in response to current injections from 0-120 pA after overnight incubation with 0.1% DMSO or 20 μM CBD3063.

The target of experiment [3] is T1, Cav2.2-CRMP2 interaction (Mus musculus, UniProt O55017).
T1 construct: a mouse neuronal cell line expressing both CRMP2 and Cav2.2; endogenous in cells; host or cells: mouse CAD cells (ECACC Cat #08100805)
Nature of the experiment: CRMP2 immunoprecipitation to detect Cav2.2 in CAD cells. Type of experiment: cell-based. As for the experimental part: Mouse neuron derived Cathecholamine A differentiated CAD cells (ECACC Cat #08100805, RRID: CVCL_0199) were grown in standard cell culture conditions, 37° C. in 5% (vol/vol) CO2. The cells were maintained in DMEM/F12 media supplemented with 10% (vol/vol) FBS (HyClone) and 1% penicillin/streptomycin sulfate from 10,000 μg/mL stock.
CAD cells were incubated overnight with a vehicle (0.1% DMSO) or CBD3063 (20 μM). The next day the cells were lysed into the IP buffer containing 20 mM Tris-HCl pH=7.4, 50 mM NaCl, 2 mM MgCl2, 10 mM N-Ethylmaleimide (NEM), 1% (vol/vol) NP-40, 0.5% (mass/vol) sodium deoxycholate, 0.1% (mass/vol) sodium dodecyl sulfate (SDS) with protease inhibitors (Cat #B14002, Biotool, Houston, TX), phosphatase inhibitors (Cat #B15002, Biotool, Houston, TX) and Nuclease (Cat #88701, Thermo Fisher Scientific, Waltham, MA). Total protein concentration was determined by BCA protein assay kit (Cat #PI23225, Thermo Fisher Scientific, Waltham, MA). Five hundred micrograms of total protein were incubated overnight with 2 μg of CRMP2 antibody (Cat #C2993, Sigma-Aldrich, St. Louis, MO) at 4° C. under gentle agitation. Protein G magnetic beads (Cat #10004D, Thermo Fisher Scientific, Waltham, MA), pre-equilibrated with the immunoprecipitation buffer, were then added to the lysates and incubated for 2 hours at 4° C. to capture immuno-complexes. […]

The structures appear in SMILES notation.

T1 sequence (O55017 whole entry): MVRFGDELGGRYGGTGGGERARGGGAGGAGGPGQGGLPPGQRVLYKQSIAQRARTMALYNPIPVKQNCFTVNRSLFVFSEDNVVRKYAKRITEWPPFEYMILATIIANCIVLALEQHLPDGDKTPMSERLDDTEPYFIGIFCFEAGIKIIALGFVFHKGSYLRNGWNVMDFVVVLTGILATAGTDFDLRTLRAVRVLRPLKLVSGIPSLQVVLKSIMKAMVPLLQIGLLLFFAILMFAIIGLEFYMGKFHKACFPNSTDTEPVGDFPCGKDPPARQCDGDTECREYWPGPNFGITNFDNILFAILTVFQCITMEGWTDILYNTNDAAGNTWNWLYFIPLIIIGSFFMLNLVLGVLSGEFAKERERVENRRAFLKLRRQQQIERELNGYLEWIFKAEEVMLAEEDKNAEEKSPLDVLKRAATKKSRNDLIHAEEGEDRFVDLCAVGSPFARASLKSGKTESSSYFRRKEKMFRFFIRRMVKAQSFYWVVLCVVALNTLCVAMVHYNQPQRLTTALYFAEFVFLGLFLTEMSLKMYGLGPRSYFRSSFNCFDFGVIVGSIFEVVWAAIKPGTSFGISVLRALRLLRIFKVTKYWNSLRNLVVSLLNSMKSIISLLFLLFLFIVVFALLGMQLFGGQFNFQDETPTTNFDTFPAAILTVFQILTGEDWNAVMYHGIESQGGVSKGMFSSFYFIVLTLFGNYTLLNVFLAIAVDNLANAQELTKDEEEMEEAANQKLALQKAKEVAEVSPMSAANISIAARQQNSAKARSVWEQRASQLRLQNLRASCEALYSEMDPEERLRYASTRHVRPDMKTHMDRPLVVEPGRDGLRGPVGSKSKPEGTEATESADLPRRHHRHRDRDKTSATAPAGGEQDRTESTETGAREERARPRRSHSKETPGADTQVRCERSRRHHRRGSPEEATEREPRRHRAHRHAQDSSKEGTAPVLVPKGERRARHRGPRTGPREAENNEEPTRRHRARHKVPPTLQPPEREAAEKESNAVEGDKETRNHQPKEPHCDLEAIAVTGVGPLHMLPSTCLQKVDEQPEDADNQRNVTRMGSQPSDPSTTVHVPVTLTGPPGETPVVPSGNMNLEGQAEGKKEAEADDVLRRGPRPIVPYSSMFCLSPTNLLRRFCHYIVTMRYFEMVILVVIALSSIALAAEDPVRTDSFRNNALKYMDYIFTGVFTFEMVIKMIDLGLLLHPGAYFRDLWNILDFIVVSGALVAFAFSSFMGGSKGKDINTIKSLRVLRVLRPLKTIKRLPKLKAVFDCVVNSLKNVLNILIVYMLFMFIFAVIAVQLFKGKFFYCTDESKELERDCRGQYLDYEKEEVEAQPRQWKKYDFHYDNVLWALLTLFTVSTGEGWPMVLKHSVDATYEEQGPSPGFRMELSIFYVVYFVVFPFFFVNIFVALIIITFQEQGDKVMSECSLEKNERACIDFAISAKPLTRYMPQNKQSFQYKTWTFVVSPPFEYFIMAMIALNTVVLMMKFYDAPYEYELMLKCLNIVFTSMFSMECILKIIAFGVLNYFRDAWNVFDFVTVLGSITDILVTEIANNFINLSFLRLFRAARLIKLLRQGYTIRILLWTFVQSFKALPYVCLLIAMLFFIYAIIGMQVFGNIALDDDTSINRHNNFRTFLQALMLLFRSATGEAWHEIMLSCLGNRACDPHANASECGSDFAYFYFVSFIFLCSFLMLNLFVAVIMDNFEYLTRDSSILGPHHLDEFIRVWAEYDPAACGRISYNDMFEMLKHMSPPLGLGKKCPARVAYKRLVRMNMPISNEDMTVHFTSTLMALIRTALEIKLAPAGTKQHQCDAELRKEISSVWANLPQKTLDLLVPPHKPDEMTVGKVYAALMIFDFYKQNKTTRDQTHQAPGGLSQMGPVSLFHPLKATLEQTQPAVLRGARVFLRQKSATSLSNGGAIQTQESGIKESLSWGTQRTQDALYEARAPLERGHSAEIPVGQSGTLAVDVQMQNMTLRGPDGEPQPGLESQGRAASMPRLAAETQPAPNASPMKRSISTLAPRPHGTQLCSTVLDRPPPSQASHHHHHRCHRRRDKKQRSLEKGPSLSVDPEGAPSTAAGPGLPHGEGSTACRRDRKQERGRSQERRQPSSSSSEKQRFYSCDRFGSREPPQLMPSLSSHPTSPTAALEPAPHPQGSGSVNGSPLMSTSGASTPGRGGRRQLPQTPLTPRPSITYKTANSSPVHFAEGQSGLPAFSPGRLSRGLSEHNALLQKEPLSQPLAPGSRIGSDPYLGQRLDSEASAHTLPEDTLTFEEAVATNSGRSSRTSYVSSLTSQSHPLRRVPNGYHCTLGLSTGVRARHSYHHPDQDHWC

`CC(=O)N[C@@H]1CCCN(C(=O)NCCCNc2ccccn2)C1` [CBD3063, (3R)-3-acetamido-N-[3-(pyridin-2-ylamino)propyl]piperidine-1-carboxamide]: in experiment [1], the “peak potassium current density” value was determined as 422.1±52.70 pA/pF. The same compound came in with a rheobase in experiment [2] (20 μM overnight (DMSO: 15.00±3.416)) of 48.33±9.098. The compound further came in with a resting membrane potential in experiment [2] (20 μM overnight (DMSO: −44.50±1.478)) of −50.00±1.915 mV. Moreover, in experiment [2] (20 μM overnight, current injection steps 10 to 120 pA), the “number of evoked action potentials” value is given as “reduced the number of evoked APs”. In addition, the “relative Cav2.2 binding to CRMP2” value in experiment [3] (20 μM overnight (DMSO: 1.00±0.05)) is 0.64±0.02. In addition, the “reduction in the level of Cav2.2 protein immunoprecipitated by CRMP2” value in experiment [3] (20 μM overnight, versus control) is on record as approximately 35%.
